Measurements reported in patent US10807986B2, “Fused pyrimidine compound or salt thereof” (TAIHO PHARMACEUTICAL CO., LTD., priority 2016, dated 2020).
Where two headings read alike, the source gives them in different places.

Key:
[1] = system: TT cells (human thyroid cancer cell line with RET activating mutation); test: In vivo antitumor effect, mice subcutaneously implanted with TT cells; set-up: species or system BALB/cA Jcl-nu/nu male mice
[2] = mouse, microsomes, 0.5 h, 1 μM
[3] = Evaluation of stability in liver microsome; details: mouse liver microsome 0.25 mg/mL, test compound 1 μM, 37° C., 30 minutes
[4] = 100 mg/kg/day oral for 14 days, day 15, Table 54

SMILES | Remaining (%) [3] [%] | also measured
COCc1ccc(NC(=O)c2c(C#CCN3CCOCC3)n(C3(C)CC3)c3ncnc(N)c23)cc1 [Example 85, 4-amino-N-[4-(methoxymethyl)phenyl]-7-(1-methylcyclopropyl)-6-(3-morpholinoprop-1-yn-1-yl)-7H-pyrrolo[2,3-d]pyrimidine-5-carboxamide] | – | T/C (%) [1, 4]: 23%; TV (mm^3) Day 15 Mean ± SE [1, 4]: 139.42 mm^3; RTV Day 15 Mean ± SE ([1]; 100 mg/kg/day oral for 14 days, day 15 relative to day 0, Table 54): 0.87; TV (mm^3) Day 0 Mean ± SE ([1]; 100 mg/kg/day oral, grouping day (day 0), Table 54): 169.45 mm^3
C/C=C/c1ccc(NC(=O)c2c(OCC)n(C3(C)CC3)c3ncnc(N)c23)cc1 [Example 117, (E)-4-amino-6-ethoxy-7-(1-methylcyclopropyl)-N-(4-(prop-1-en-1-yl)phenyl)-7H-pyrrolo[2,3-d]pyrimidine-5-carboxamide] | – | Remaining (%) [2]: 53%
COCc1ccc(NC(=O)c2c(C3=CCOCC3)n(C3(C)CC3)c3ncnc(N)c23)cc1 [Example 203, 4-amino-6-(3,6-dihydro-2H-pyran-4-yl)-N-(4-(methoxymethyl)phenyl)-7-(1-methylcyclopropyl)-7H-pyrrolo[2,3-d]pyrimidine-5-carboxamide] | 68 | –
COCc1ccc(NC(=O)c2c(C(C)O)n(C3(C)CC3)c3ncnc(N)c23)cc1 (stereo not drawn) [Example 204, 4-amino-6-(1-hydroxyethyl)-N-(4-(methoxymethyl)phenyl)-7-(1-methylcyclopropyl)-7H-pyrrolo[2,3-d]pyrimidine-5-carboxamide] | 83 | –
CCc1c(C(=O)Nc2ccc(COC)cc2)c2c(N)ncnc2n1C1(C)CC1 [Example 207, 4-amino-6-ethyl-N-(4-(methoxymethyl)phenyl)-7-(1-methylcyclopropyl)-7H-pyrrolo[2,3-d]pyrimidine-5-carboxamide] | 72 | –

The next lines start with results.

Remaining (%) [3] [%] | SMILES | also measured
57 | COCc1ccc(NC(=O)c2c(C#CCN(C)C)n(C3(C)CC3)c3ncnc(N)c23)cc1 [Example 198, 4-amino-6-(3-(dimethylamino)prop-1-yn-1-yl)-N-(4-(methoxymethyl)phenyl)-7-(1-methylcyclopropyl)-7H-pyrrolo[2,3-d]pyrimidine-5-carboxamide] | –
80 | COCc1ccc(NC(=O)c2c(C#CCC3CCCCC3)n(C3(C)CC3)c3ncnc(N)c23)cc1 [Example 199, 4-amino-6-(3-cyclohexylprop-1-yn-1-yl)-N-(4-(methoxymethyl)phenyl)-7-(1-methylcyclopropyl)-7H-pyrrolo[2,3-d]pyrimidine-5-carboxamide] | –
58 | COCc1ccc(NC(=O)c2c(C#CC3CCOCC3)n(C3(C)CC3)c3ncnc(N)c23)cc1F [Example 205, 4-amino-N-(3-fluoro-4-(methoxymethyl)phenyl)-7-(1-methylcyclopropyl)-6-((tetrahydro-2H-pyran-4-yl)ethynyl)-7H-pyrrolo[2,3-d]pyrimidine-5-carboxamide] | –
77 | COCc1ccc(NC(=O)c2c(C#CCN3CCOCC3)n(C3(C)CC3)c3ncnc(N)c23)cc1F [Example 206, 4-amino-N-(3-fluoro-4-(methoxymethyl)phenyl)-7-(1-methylcyclopropyl)-6-(3-morpholinoprop-1-yn-1-yl)-7H-pyrrolo[2,3-d]pyrimidine-5-carboxamide] | –
